{"source": "patent US20060177853A1", "about": "“Antidepressant drug target” (The Scripps Research Institute, priority 2005, published 2006)", "key": {"rat GalR2": {"biological_target": "T1, rat GalR2 (Rattus norvegicus, UniProt O08726)", "T1 construct": "expressed in transfected cells; host or cells: CHO cells, stably transfected", "T1 sequence (O08726 1-372)": "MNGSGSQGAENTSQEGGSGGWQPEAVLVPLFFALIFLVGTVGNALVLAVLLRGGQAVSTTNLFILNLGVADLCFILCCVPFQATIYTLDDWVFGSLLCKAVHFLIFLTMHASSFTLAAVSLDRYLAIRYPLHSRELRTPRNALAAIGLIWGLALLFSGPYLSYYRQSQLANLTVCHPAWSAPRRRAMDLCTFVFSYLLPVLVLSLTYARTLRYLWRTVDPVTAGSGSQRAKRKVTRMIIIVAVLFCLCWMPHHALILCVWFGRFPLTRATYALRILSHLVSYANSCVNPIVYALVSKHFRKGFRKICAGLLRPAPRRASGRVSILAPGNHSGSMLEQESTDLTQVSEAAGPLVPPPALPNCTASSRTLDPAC", "experiment": "Displacement of [125I]galanin binding from membranes of GalR2-expressing cells", "conditions": "data not shown", "from_the_text": "Cell lines. Stably transfected Chinese Hamster Ovary (CHO) cells expressing rat GalR2, and Bowes' melanoma cells that express human GalR1, were cultivated as described earlier (Wang, S., et al. Biochemistry 1998, 37, 6711-7; and Heuillet, E., et al. Eur. J. Pharmacol. 1994, 269, 139-47).\nMembrane preparation and binding assay. DRN and LC were dissected from a total of 16 rats per group and samples from 4 animals were pooled. Rat brain synaptic membranes (Lu, X., et al. Neurosci. Lett. 2000, 286, 149-53) and cells were prepared as previously described (Heuillet, E., et al. Eur. J. Pharmacol. 1994, 269, 139 47). Equilibrium binding of ^125I, galanin (2200 Ci/mmol, PerkinElmer Life Science, Boston, Mass.) to hippocampal membrane preparations was performed in 150 μL binding buffer [50 mM Tris Cl (pH 7.4), 5 mM MgCl2, 0.05 % (w/v) bovine serum albumin, supplemented with protease inhibitors]. Incubations were at room temperature for 45 minutes and terminated by rapid filtration through glass fiber filters (Packard, Meriden, Conn.). After three washes with cold PBS (pH 7.4) containing 0.01 % (v/v) Triton X 100, the filter was counted with Cobra II auto Gamma counting systems (Parkard Bioscience, Downer Grove, Ill.)."}, "withdrawal signs": {"system": "withdrawal signs", "conditions": "Zachariou et al. 2003, cited from earlier work"}, "[1]": {"system": "time spent active in forced swim test", "experiment": "Forced swim test", "format": "in vivo, rat", "description": "Rats underwent aseptic stereotaxic surgery under ketamine (100 mg/kg, i.p.) xylazine (10 mg/kg, i.p.) anesthesia. A guide cannula 1.4 cm in length, of 26 gauge stainless steel hypodermic tubing (Plastics One, St. Louis, Mo.) was implanted into the right lateral ventricle at coordinates 0.5 mm posterior, 1.0 mm lateral to bregma, and 3.5 mm ventral to the surface of the skull. A 31 gauge stylet was secured to the guide cannula following the surgery. After surgery, rats were given at least 8 days recovery before the start of behavioral testing.\nFluoxetine (FLX, Sigma, St. Louis, Mo.) was dissolved in saline and administered i.p. at a dose of 10 mg/kg daily for 14 days for biochemical studies. Separate groups of rats received daily i.p. injections of FLX or saline vehicle for 14 days for testing in the forced swim task. On day 14, rats were administered FLX or saline i.p. at 45 minutes prior to the forced swim test and M40 (Bachem, King of Prussia, Pa.) or ACSF i.c.v. at 15 minutes prior to the forced swim test (see methods below). Single i.c.v. microinjections of M40 (8 nmol/2 μl ACSF) or ACSF (2 μl) were performed with a 10 μl Hamilton syringe connected via Becton Dickinson polyethylene tubing (PE20) to a 1.5 cm injector (Plastics One) fabricated from 31 gauge hypodermic tubing. The animal was allowed to freely explore a small cage during the infusion of 2 μl over 1.5 minutes, with each 1 μl separated by ten seconds, and an additional sixty seconds before the injector was withdrawn from the guide cannula. The treatments consisted of equal numbers of rats receiving one of the following combinations of treatments: saline+ACSF, saline+M40, FLX+ACSF, or FLX+M40. Additional treatment groups (n=10 per group) were examined in a separate forced swim test 45 minutes after i.p. injection of one of the following: 50% DMSO (w/v), galnon (Vulpes, Estonia; dissolved in 50% DMSO), or desipramine (Sigma, St Louis, Mo., 15 mg/kg in 50% DMSO).\nForced swim test. Rats were placed singly in a cylindrical glass container (48 cm height, 21 cm diameter) with tap water (25° C.) to a depth of 27 cm and tested for 10 minutes. Water was changed and the cylinder thoroughly rinsed after each test. Tests were recorded on videotape and later scored by an experienced observer blind to the experimental conditions of the rats.\nData for forced swim test studies utilizing galnon and desipramine were subject to a one factor analysis of variance (ANOVA), with drug treatment as the between subjects factor. For the M40 FLX study, data were subject to a two factor between subjects design, with chronic drug treatment (FLX vs vehicle) and i.c.v. drug (M40 vs ACSF) as the main factors. Significant main effects were followed up with Fisher's LSD posthoc test to determine specific group differences."}, "seizures": {"system": "seizures", "conditions": "Saar et al. 2002; cited from earlier work"}, "[2]": {"system": "locomotor activity (line crossing)", "experiment": "Open field test", "format": "in vivo, rat", "conditions": "for locomotor activity in the open field (words): desipramine 15 mg/kg", "experimental": "Drug treatments. […] Louis, Mo.) was dissolved in saline and administered i.p. at a dose of 10 mg/kg daily for 14 days for biochemical studies. Separate groups of rats received daily i.p. injections of FLX or saline vehicle for 14 days for testing in the forced swim task. On day 14, rats were administered FLX or saline i.p. at 45 minutes prior to the forced swim test and […] (Bachem, King of Prussia, Pa.) or […]. at 15 minutes prior to the forced swim test (see methods below). Single i.c.v. microinjections of M40 (8 nmol/2 μl ACSF) or ACSF (2 μl) were performed with a 10 μl Hamilton syringe connected via Becton Dickinson polyethylene tubing (PE20) to a 1.5 cm injector (Plastics One) fabricated from 31 gauge hypodermic tubing. The animal was allowed to freely explore a small cage during the infusion of 2 μl over 1.5 minutes, with each 1 μl separated by ten seconds, and an additional sixty seconds before the injector was withdrawn from the guide cannula. The treatments consisted of equal numbers of rats receiving one of the following combinations of treatments: saline+ACSF, saline+M40, FLX+ACSF, or FLX+[…]. […] One week after the forced swim test, rats were randomly assigned to treatment groups. […] Forty five minutes after injection, rats were subjected to the open field test. Open field test. One week after the forced swim test, rats were randomly assigned to treatment groups. […] The apparatus consisted of a square arena (100 by 100 cm), with a 40 cm high opaque white wall. The floor was marked into 9 equal segments and fluorescent light provided diffuse overhead illumination. Locomotor activity over 5 minutes was recorded on videotape. Tapes were later scored blind to the experimental condition of the animals. Line crossing behavior (defined as at least three paws in a square) was tallied and compared between experimental conditions."}, "GalR1 sites": {"system": "GalR1 sites", "experiment": "GalR1 binding sites in brain tissue after treatment, total galanin-binding sites minus GalR2 sites", "format": "in vivo", "conditions": "rat DRN, FLX 10 mg/kg i.p. 14 days", "experimental": "(§1) Tissue dissections. Tissues used for RNA extraction or binding study were rapidly dissected after sacrifice and immediately frozen on dry ice. All dissections were performed by an experienced neuroanatomist with a rat brain slicer and for small structures, like LC and DRN, the punching method was used to assure reproducible dissection.\n(§2) Membrane preparation and binding assay. DRN and LC were dissected from a total of 16 rats per group and samples from 4 animals were pooled. […] Incubations were at room temperature for 45 minutes and terminated by rapid filtration through glass fiber filters (Packard, Meriden, Conn.). After three washes with cold PBS (pH 7.4) containing 0.01 % (v/v) Triton X 100, the filter was counted with Cobra II auto Gamma counting systems (Parkard Bioscience, Downer Grove, Ill.).\n(§3) Neurol. […] Anxiety 2000, 12, 170-7; Nolen, W. A., et al. Int. Clin. Psychopharmacol. […] Neurol. […] As GalR3 is not abundant in the regions tested, GalR1 sites were estimated by subtracting GalR2 sites from the sum of GalR1 and GalR2 receptor sites. […] Neurol.\n(§4) Drug treatments. Fluoxetine (FLX, Sigma, St. Louis, Mo.) was dissolved in saline and administered i.p. at a dose of 10 mg/kg daily for 14 days for biochemical studies. Separate groups of rats received daily i.p. injections of FLX or saline vehicle for 14 days for testing in the forced swim task. […]"}, "GalR2 sites": {"system": "GalR2 sites", "experiment": "GalR2 binding sites in brain tissue after treatment, saturating [125I]galanin binding with galanin (2-11) as competitor", "format": "in vivo, rat", "conditions": "FLX 10 mg/kg i.p. 14 days", "experimental": "as §1, §2, §3, §4"}, "galanin mRNA": {"system": "galanin mRNA", "experiment": "Quantitative real time PCR of galanin mRNA in rat brain regions after treatment", "format": "in vivo", "experimental": "as §1\nQuantitative real time PCR. Brain tissues obtained from 12 rats (DRN, LC, paraventricular nucleus of hypothalamus) or 6 rats (prefrontal cortex, amygadala, hippocampus) were pooled and total RNA was prepared with Trizol reagent (Invitrogen, Carlsbad, Calif.) following manufacturer's instructions. For galanin mRNA quantification in DRN and LC after FLX treatment, the experiment was repeated with 3 independent pools of 4 rats per treatment per brain region. Aliquots of total RNA (2 μg) and oligo(dT) primers were then reverse transcribed with ThermoScript RT (Invitrogen) at 51° C. for 60 minutes. Quantitative PCR was performed using a Roche LightCycler and LightCycler Fast Start DNA Master SYBR Green I mix (Roche Applied Science, Indianapolis, Ind.). […] Real time PCR assays included an initial 10 minutes, 94° C. step to activate Taq polymerase, followed by 35 cycles of denaturation 94° C., 10 seconds, annealing 58° C., 10 seconds, and extension 72° C., 25 seconds. The results were expressed in arbitrary units normalized by the expression levels of the reference gene, β-actin.\nDrug treatments. Fluoxetine (FLX, Sigma, St. Louis, Mo.) was dissolved in saline and administered i.p. at a dose of 10 mg/kg daily for 14 days for biochemical studies. Separate groups of rats received daily i.p. injections of FLX or saline vehicle for 14 days for testing in the forced swim task. On day 14, rats were administered FLX or saline i.p. at 45 minutes prior to the forced swim test and M40 (Bachem, King of Prussia, Pa.) or ACSF i.c.v. at 15 minutes prior to the forced swim test (see methods below). Single i.c.v. microinjections of M40 (8 nmol/2 μl ACSF) or ACSF (2 μl) were performed with a 10 μl Hamilton syringe connected via Becton Dickinson polyethylene tubing (PE20) to a 1.5 cm injector (Plastics One) fabricated from 31 gauge hypodermic tubing. The animal was allowed to freely explore a small cage during the infusion of 2 μl over 1.5 minutes, with each 1 μl separated by ten seconds, and an additional sixty seconds before the injector was withdrawn from the guide cannula. The treatments consisted of equal numbers of rats receiving one of the following combinations of treatments: saline+ACSF, saline+M40, FLX+ACSF, or FLX+M40. […] One week after the forced swim test, rats were randomly assigned to treatment groups. Rats were treated with vehicle, galnon or desipramine. Forty five minutes after injection, rats were subjected to the open field test."}, "[3]": {"system": "time spent active in forced swim test", "conditions": "dose that suppresses status epilepticus; Bartfai et al. 2004; cited from earlier work"}}, "note": "Values joined by “and” are separate entries in the source; they are usually repeats but may differ in a detail not shown here. Equal values may be shown once. “Also recorded” adds a separate entry of the source. Read-outs that look alike come from different tables or passages of the source. Square brackets hold non-standard residues; d marks the D form. Peptide text beside a SMILES is read from it. * marks the point of attachment. Fmoc = O=C(OCC1c2ccccc2-c2ccccc21)*; Cha = N[C@@H](CC1CCCCC1)C(=O)O; AMC = Cc1cc(=O)oc2cc(N*)ccc12", "data": [{"smiles": "Cc1cc(=O)oc2cc(NC(=O)[C@H](CCCCN)NC(=O)[C@H](CC3CCCCC3)NC(=O)OCC3c4ccccc4-c4ccccc43)ccc12", "note": "[galnon] (Fmoc-[Cha]-Lys-{AMC})", "values": [{"measurement": "Ki", "setting": "rat GalR2", "value": 34.1, "unit": "µM"}, {"measurement": "effect on withdrawal signs (words)", "setting": "withdrawal signs", "value": "attenuate several withdrawal signs"}, {"measurement": "effect on withdrawal signs (words)", "setting": "withdrawal signs; listed as Galnon", "value": "inhibit signs of opiate withdrawal"}, {"measurement": "increase in activity in the forced swim test", "setting": "[1]; galnon 20 mg/kg i.p., p<0.05", "value": "significant"}, {"measurement": "increase in activity in the forced swim test", "setting": "[1]; galnon 40 mg/kg i.p., p<0.01", "value": "significant"}, {"measurement": "activity in the forced swim test", "setting": "[1]; galnon 1-40 mg/kg i.p., 45 minutes after injection", "value": "significant increase; also recorded: dose dependent increase"}, {"measurement": "latency of phenyleneterazol induced seizures", "setting": "seizures", "value": "increase the latency"}, {"measurement": "activity in the open field", "setting": "[2]; galnon 20 mg/kg, p<0.01", "value": "significantly reduced"}, {"measurement": "activity in the open field", "setting": "[2]; galnon 40 mg/kg, p<0.05", "value": "significantly reduced"}, {"measurement": "activity in the open field", "setting": "[2]; higher doses of galnon, P<0.05 vs control", "value": "significantly reduced activity"}]}, {"smiles": "CNCCC(Oc1ccc(C(F)(F)F)cc1)c1ccccc1", "note": "(stereo not shown) [FLX, fluoxetine]", "values": [{"measurement": "effect on number of GalR1 binding sites in DRN", "setting": "GalR1 sites", "value": "without changes; also recorded: unaltered"}, {"measurement": "increase in number of GalR2 binding sites in DRN", "setting": "GalR2 sites; rat DRN", "value": "50% and 58%"}, {"measurement": "effect on GalR2 sites in LC", "setting": "GalR2 sites; rat LC", "value": "not in LC"}, {"measurement": "increase in time spent active in the forced swim test vs saline-pretreated rats", "setting": "[1]; FLX 10 mg/kg i.p. 14 days, 10 minute test, P<0.05", "value": "~46", "unit": "%"}, {"measurement": "time spent active in the forced swim test", "setting": "[1]; FLX 10 mg/kg i.p. 14 days, FLX+ACSF vs Saline+ACSF, p<0.05", "value": "significant increase"}, {"measurement": "increase in galanin mRNA levels in DRN", "setting": "galanin mRNA; rat DRN, FLX 10 mg/kg i.p. 14 days", "value": 100, "unit": "%"}, {"measurement": "increase in galanin mRNA levels in DRN", "setting": "galanin mRNA; rat DRN, FLX 10 mg/kg i.p. 14 days, pooled samples", "value": 2, "unit": "fold"}, {"measurement": "effect on galanin mRNA in DRN", "setting": "galanin mRNA; rat DRN, FLX 14 days, three independent pools, P<0.05 vs Ctrl", "value": "increased galanin mRNA"}, {"measurement": "increase in galanin mRNA levels in LC", "setting": "galanin mRNA; rat LC, FLX 10 mg/kg i.p. 14 days, pooled samples", "value": 2.2, "unit": "fold"}, {"measurement": "effect on galanin mRNA in LC", "setting": "galanin mRNA; rat LC, FLX 14 days", "value": "increased galanin mRNA"}]}, {"smiles": "COC(=O)[C@H](CCCCN)NC(=O)[C@]1(C)NC(=O)c2nc(oc2C)[C@](C)(C(=O)NC2c3ccccc3-c3ccccc32)NC(=O)c2nc(oc2C)[C@](C)(C(=O)NCC2CCCCC2)NC(=O)c2nc1oc2C", "note": "[galmic]", "values": [{"measurement": "effect in the forced swim test", "setting": "[3]", "value": "antidepressant like effect"}]}, {"smiles": "CNCCCN1c2ccccc2CCc2ccccc21", "note": "[desipramine]", "values": [{"measurement": "activity in the forced swim test", "setting": "[1]; desipramine 15 mg/kg i.p., positive control", "value": "significantly increased activity"}, {"measurement": "increase in activity in the forced swim test", "setting": "[1]; desipramine 15 mg/kg i.p., positive control, p<0.001", "value": 125, "unit": "%"}, {"measurement": "locomotor activity in the open field (words)", "setting": "[2]; p<0.01", "value": "significantly reduced activity"}, {"measurement": "locomotor activity in the open field (words)", "setting": "[2]; p<0.01, listed as Desipramine", "value": "significant reduction"}]}]}
